We go through 2 molecules from patent publication US11597724B2, “Herbicidally active 3-phenylisoxazoline-5-carboxamides of tetrahydro and dihydrofuran carboxylic acids and esters” (Bayer Aktiengesellschaft, priority 2017, dated 2023).

Type in all cases: in vivo
Assay [1] deals with Veronica persica. In words: Pre-emergence herbicidal activity against VERPE. The settings on record: Veronica persica, 504 h, dosage 80 g/ha. The text has this:
(§1) 1. Pre-Emergence Herbicidal Action and Crop Plant Compatibility Seeds of monocotyledonous and dicotyledonous weed plants and crop plants are placed in plastic or wood fiber pots and covered with soil. The compounds of the invention, formulated in the form of wettable powders (WP) or as emulsion concentrates (EC), are then applied onto the surface of the covering soil as aqueous suspension or emulsion with addition of 0.5% additive at a water application rate of 600 l/ha (converted). After the treatment, the pots are placed in a greenhouse and kept under good growth conditions for the trial plants. After about 3 weeks, the effect of the preparations is scored visually in comparison with untreated controls as percentages. For example, 100% activity=the plants have died, 0% activity=like control plants. STEME: Stellaria media VERPE: Veronica persica

A further assay concerns Hordeum murinum. In words: Post-emergence herbicidal activity against HORMU. As to conditions: Hordeum murinum, 504 h, dosage 320 g/ha. On the procedure:
(§2) ECHCG: Echinochloa crus-galli HORMU: Hordeum murinum 2. Post-Emergence Herbicidal Action and Crop Plant Compatibility Seeds of monocotyledonous and dicotyledonous weeds and crop plants are placed in sandy loam in plastic or wood-fiber pots, covered with soil and cultivated in a greenhouse under controlled growth conditions. 2 to 3 weeks after sowing, the test plants are treated at the one-leaf stage. The compounds of the invention, formulated in the form of wettable powders (WP) or as emulsion concentrates (EC), are then sprayed onto the green parts of the plants as aqueous suspension or emulsion with addition of 0.5% additive at a water application rate of 600 l/ha (converted). After the test plants had been kept in the greenhouse under optimum growth conditions for about 3 weeks, the activity of the preparations is rated visually in comparison to untreated controls. For example, 100% activity=the plants have died, 0% activity=like control plants.

Assay [2] is described as follows: Post-emergence treatment, summary over harmful plants. As to conditions: 504 h, application rate of 0.32 kg of active substance or less per hectare, read-out: herbicidal action, post-emergence treatment (very good herbicidal activity). On the procedure: 2. Post-Emergence Herbicidal Action and Crop Plant Compatibility
as §2, with “Seeds” for “ECHCG: Echinochloa crus-galli HORMU: Hordeum murinum 2. Post-Emergence Herbicidal Action and Crop Plant Compatibility Seeds”
As shown by the results, compounds according to the invention such as, for example, the compounds No. I-35 and other compounds from the tables (for example I-28, I-38, I-01, I-19, I-36, I-29, I-32, I-11, I-12, I-37, I-06, I-09, I-33, I-34, I-13, I-04, I-26, I-21, I-30, I-05, I-03, I-20, I-27, I-14, I-10, I-23, I-07, I-25, I-02, I-08, I-24, I-41, I-42, I-43, I-44, I-46, I-49, I-54, I-55, I-56) have, when used for post-emergence treatment, very good herbicidal activity (80% to 100% herbicidal action) against harmful plants such as Abutilon theophrasti, Alopecurus myosuroides, Amaranthus retroflexus, Avena fatua, Echinochloa crus-galli, Hordeum murinum, Lolium rigidum, Pharbitis purpurea, Polygonum convolvulus, Setaria viridis, Stellaria media, Veronica persica and Viola tricolor at an application rate of 0.32 kg of active substance or less per hectare.

Another assay relates to Amaranthus retroflexus. In words: Pre-emergence herbicidal activity against AMARE. As to conditions: Amaranthus retroflexus, 504 h, dosage 80 g/ha.
Excerpt: as §1, with “AMARE: Amaranthus retroflexus AVEFA: Avena fatua” for “STEME: Stellaria media VERPE: Veronica persica”

Another assay deals with Polygonum convolvulus. Kind of assay: Post-emergence herbicidal activity against POLCO. As to conditions: Fallopia convolvulus, 504 h, dosage 320 g/ha, rated about 3 weeks after treatment. On the procedure: as §2, with “POLCO: Polygonum convolvulus SETVI: Setaria viridis” for “ECHCG: Echinochloa crus-galli HORMU: Hordeum murinum”
A further assay concerns Pharbitis purpurea. Kind of assay: Post-emergence herbicidal activity against PHBPU. The settings on record: Ipomoea purpurea, 504 h, dosage 320 g/ha, rated about 3 weeks after treatment. On the procedure:
as §2, with “LOLRI: Lolium rigidum PHBPU: Pharbitis purpurea” for “ECHCG: Echinochloa crus-galli HORMU: Hordeum murinum”

The next assay deals with Lolium rigidum. In words: Post-emergence herbicidal activity against LOLRI. As to conditions: Lolium rigidum, 504 h, dosage 320 g/ha, rated about 3 weeks after treatment. On the procedure: as §2, with “LOLRI: Lolium rigidum PHBPU: Pharbitis purpurea” for “ECHCG: Echinochloa crus-galli HORMU: Hordeum murinum”
The next assay has as its system Alopecurus myosuroides. Kind of assay: Post-emergence herbicidal activity against ALOMY. The settings on record: Alopecurus myosuroides, 504 h, dosage 320 g/ha, rated about 3 weeks after treatment. On the procedure: as §2, with “ABUTH: Abutilon theophrasti ALOMY: Alopecurus myosuroides” for “ECHCG: Echinochloa crus-galli HORMU: Hordeum murinum”
For a further assay, the system named is Avena fatua. Kind of assay: Post-emergence herbicidal activity against AVEFA. As to conditions: Avena fatua, 504 h, dosage 320 g/ha, rated about 3 weeks after treatment. The method, then:
as §2, with “AMARE: Amaranthus retroflexus AVEFA: Avena fatua” for “ECHCG: Echinochloa crus-galli HORMU: Hordeum murinum”

Assay [3] deals with Stellaria media. In words: Post-emergence herbicidal activity against STEME. The settings on record: Stellaria media, 504 h, dosage 320 g/ha, rated about 3 weeks after treatment. On the procedure: as §2, with “STEME: Stellaria media VERPE: Veronica persica” for “ECHCG: Echinochloa crus-galli HORMU: Hordeum murinum”
The test system of a further assay is Abutilon theophrasti. In words: Post-emergence herbicidal activity against ABUTH. As to conditions: Abutilon theophrasti, 504 h, dosage 320 g/ha, rated about 3 weeks after treatment. The method, then:
as §2, with “ABUTH: Abutilon theophrasti ALOMY: Alopecurus myosuroides” for “ECHCG: Echinochloa crus-galli HORMU: Hordeum murinum”

The subject of assay [4] is Stellaria media. Kind of assay: Pre-emergence herbicidal activity against STEME. The settings on record: Stellaria media, 504 h, dosage 80 g/ha.
Excerpt: as §1

The test system of assay [5] is Veronica persica. In words: Post-emergence herbicidal activity against VERPE. The settings on record: Veronica persica, 504 h, dosage 320 g/ha. The method, then: as §2, with “STEME: Stellaria media VERPE: Veronica persica” for “ECHCG: Echinochloa crus-galli HORMU: Hordeum murinum”

As for `CCOC(=O)C1=C(NC(=O)C2(C)CC(c3cc(F)cc(F)c3)=NO2)COC1` (stereo not shown) [I-24, ethyl 4-[[3-(3,5-difluorophenyl)-5-methyl-4H-isoxazole-5-carbonyl]amino]-2,5-dihydrofuran-3-carboxylate], the pest or weed control at 80 g/ha with Veronica persica [1] worked out at 100%; in the assay with Amaranthus retroflexus, 80%. The pest or weed control at 320 g/ha was 90% in the assay with Hordeum murinum; 80 to 100% in assay [2]; 90% in the assay with Polygonum convolvulus; 80% with Pharbitis purpurea; 90% with Lolium rigidum; 90% with Alopecurus myosuroides. The molecule further had a pest or weed control at 320 g/ha in the assay on Avena fatua of 90%.
`COC(=O)C1=C(NC(=O)C2(C)CC(c3cc(F)cc(F)c3)=NO2)COC1` (stereo not shown) [I-25, methyl 4-[[3-(3,5-difluorophenyl)-5-methyl-4H-isoxazole-5-carbonyl]amino]-2,5-dihydrofuran-3-carboxylate]: the pest or weed control at 320 g/ha with Stellaria media [3] is 90%; in the assay with Abutilon theophrasti, 80%; in assay [2], 80 to 100%; in the assay with Polygonum convolvulus, 90%; in the assay on Pharbitis purpurea, 80%; in the assay on Alopecurus myosuroides, 100%. Moreover, the pest or weed control at 320 g/ha came out at 100% in the assay on Avena fatua and 80% in the assay with Veronica persica [5]. The pest or weed control at 80 g/ha in the assay on Veronica persica [1] and in the assay with Stellaria media [4] was 100% each time.
